Measurements from patent US9274102B2, “Method of screening for an inhibitor of odor cause by furaneol” (Kao Corporation, priority 2013, dated 2016).

The compounds below were run against T1, olfactory receptor OR5K1 (Homo sapiens, UniProt Q8NHB7) (assay: Antagonistic activity against the response of OR5K1 to Furaneol (luciferase reporter gene assay, HEK293 cells)). Settings: Furaneol 3 mM, test substance 100 μM; OR5K1-expressing HEK293 cells; read-out: rate of inhibition of the response of OR5K1 to Furaneol.
T1 construct: Flag-Rho tag (N); expressed in transfected cells; host or cells: HEK293
T1 sequence (Q8NHB7 1-308): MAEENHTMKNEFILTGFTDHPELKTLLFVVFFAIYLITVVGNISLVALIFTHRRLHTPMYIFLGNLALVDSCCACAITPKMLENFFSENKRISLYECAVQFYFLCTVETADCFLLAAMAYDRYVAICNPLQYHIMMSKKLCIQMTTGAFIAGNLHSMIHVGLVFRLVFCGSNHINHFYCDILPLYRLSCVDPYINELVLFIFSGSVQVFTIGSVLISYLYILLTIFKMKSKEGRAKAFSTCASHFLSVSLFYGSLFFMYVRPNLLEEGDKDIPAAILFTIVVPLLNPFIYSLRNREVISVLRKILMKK
Assay type: cell-based
Experimental: 84 types of test substances were examined for their antagonistic activity against the response of the olfactory receptor OR5K1 to Furaneol.
Furaneol (3 mM) and each test substance (100 μM) were added to HEK293 cells allowed to express the olfactory receptor OR5K1 by the same procedures as in Example 2. The response of the olfactory receptor was measured to evaluate change in receptor response caused by the addition of the test substance.
The rate of inhibition of the receptor response by the test substance was calculated as follows: firefly luciferase-derived luminescence intensity (Y) in the olfactory receptor OR5K1-expressing cells without Furaneol stimulation was subtracted from firefly luciferase-derived luminescence intensity (X) induced by stimulation with Furaneol alone to determine receptor activity (X−Y) based on the stimulation with Furaneol alone. Likewise, the luminescence intensity (Y) in the cells without Furaneol stimulation was subtracted from luminescence intensity (Z) induced by stimulation with the mixture of Furaneol and the test substance to determine receptor activity (Z−Y) in the presence of the test substance. The rate of reduction in the receptor activity (Z−Y) in the presence of the test substance with respect to the receptor activity (X−Y) based on the stimulation with Furaneol alone was calculated according to an expression shown below to determine the rate of inhibition of the receptor response by the test substance. In this assay, a plurality of independent duplicate experiments were performed. An average of the experiments in each run was obtained. Rate of inhibition (%)={1−(Z−Y)/(X−Y)}×100

SMILES	inhibition at 100 µM
CC1C/C=C/CCCCCCCCCC(=O)C1 [Muscenone(R) Delta, (5E)-3-Methylcyclopentadec-5-en-1-one]	≥ 75%
CC(=O)O[C@]1(C)CC[C@@]23C[C@@H]1C(C)(C)[C@@H]2CC[C@H]3C [Cedryl acetate]	≥ 50%
CC(=O)C1(C)CC2=C(CCCC2(C)C)CC1C (centres unmarked) [Iso E Super, 7-Acetyl-1,2,3,4,5,6,7,8-octahydro-1,1,6,7-tetramethyl-naphthalene]	≥ 75%
CC(C)=CCCC(C)=CC=O [Citral]	≥ 75%
CC(=O)c1cc2c(cc1C)C(C)(C)C(C)CC2(C)C [Tonalid(R), 1-(5,6,7,8-tetrahydro-3,5,5,6,8,8-hexamethyl-2-naphthalenyl)-ethanone]	≥ 75%
CC1(CO)CC1CC1CC2CC2(C)C1(C)C [Javanol(R), (1-Methyl-2-(1,2,2-trimethylbicyclo[3.1.0]-hex-3-ylmethyl)cyclopropyl)methanol]	≥ 40%

Other lines, results leading:

inhibition at 100 µM	SMILES
≥ 75%	Cc1ccc(C(C)C)c(O)c1 [thymol, 5-Methyl-2-(1-methylethyl)-phenol]
≥ 75%	CC(=O)C1=C(C)C2CC3(C1)C(C)CCC3C2(C)C (centres unmarked) [acetylcedrene, 1-(2,3,4,7,8,8a-hexahydro-3,6,8,8-tetramethyl-1H-3a,7-methanoazulen-5-yl)-ethanone]
≥ 50%	CCC(=CCC1CC=C(C)C1(C)C)CO (centres unmarked) [bangalol, 2-Ethyl-4-(2,2,3-trimethyl-3-cyclopenten-1-yl)-2-buten-1-ol]
≥ 75%	CC(=O)/C(C)=C/C1C(C)=CCCC1(C)C (centres unmarked) [methyl ionone-G, (E)-3-Methyl-4-(2,6,6-trimethylcyclohex-2-en-1-yl)but-3-en-2-one]
≥ 75%	CC(C)(C)c1ccc(CCC=O)cc1 [bourgeonal, 3-(4-tert-Butylphenyl)propanal]
≥ 75%	CC1COCc2cc3c(cc21)C(C)(C)C(C)C3(C)C (centres unmarked) [galaxolide, 4,6,6,7,8,8-Hexamethyl-1,3,4,6,7,8-hexahydrocyclopenta[g]isochromene]

The compounds below were run against T1, olfactory receptor OR5K1 (assay: Luciferase reporter gene assay: response of olfactory receptors expressed on HEK293 cells to Furaneol). Settings: Furaneol 0, 3, 10, 30, 100, 300, 1000 and 3000 μM; OR5K1 with human RTP1S on HEK293 cells; FIG. 2.
Assay type: cell-based
Experimental: HEK293 cells expressing each of 400 types of human olfactory receptors were prepared. Each reaction solution having the composition shown in Table 1 was prepared, then left standing for 15 minutes in a clean bench, and then added to each well of a 96-well plate (Becton, Dickinson and Company). Subsequently, the HEK293 cells (3×10^5 cells/cm^2) were inoculated thereto at 100 μL/well and then cultured at 37° C. for 24 hours in an incubator kept at 5% CO2.
The olfactory receptors expressed on the HEK293 cells are conjugated with intracellular Gαs to activate adenylate cyclase, thereby increasing intracellular cAMP levels. In this study, their responses to Furaneol were measured using luciferase reporter gene assay which involved monitoring increase in intracellular cAMP level as luminescence intensity derived from a firefly luciferase gene (fluc2P-CRE-hygro). […]
A medium was removed from the cultures prepared in the preceding paragraph 3). […] The luciferase activity was measured using Dual-Glo™ luciferase assay system (Promega Corp.) according to the instruction manual of the product. Firefly luciferase-derived luminescence intensity induced by stimulation with Furaneol was divided by luminescence intensity in the cells without Furaneol stimulation to calculate a value as fold increase, which was in turn used as an index for response intensity. […]

concentration dependence of OR5K1 response to Furaneol	SMILES
concentration-dependent response	CC1=C(O)C(=O)C(C)O1 (centres unmarked) [Furaneol, 2,5-dimethyl-4-hydroxy-3(2H)-furanone]

Same assay, conditions: Furaneol 3 mM; 400 types of human olfactory receptors screened in HEK293 cells; FIG. 1

SMILES	response of olfactory receptor to Furaneol (fold increase of luminescence)
CC1=C(O)C(=O)C(C)O1 (centres unmarked) [Furaneol, 2,5-dimethyl-4-hydroxy-3(2H)-furanone]	only the olfactory receptor OR5K1 exhibited a response
